Values of other authors as cited in patent publication US20160335412A1, “SYSTEMS AND METHODS FOR PREDICTING AND ADJUSTING THE DOSAGE OF MEDICINES IN INDIVIDUAL PATIENTS” (priority 2013, published 2016).

Row | SMILES | 'therapeutic range' of plasma drug concentrations (has been established, treatment of schizophrenia) [ng/mL] | 'therapeutic range' of plasma concentrations (documented in the literature, lower limit = no response in most patients, upper limit = toxicity in most)
1 | Cc1cc2c(s1)Nc1ccccc1N=C2N1CCN(C)CC1 [olanzapine] | 20 to 80 | 
2 | Cn1c(=O)c2[nH]cnc2n(C)c1=O [theophylline] |  | 5-10 micrograms per ml plasma
